Here are results for twelve molecules from ChEMBL document CHEMBL2390858, “Design, synthesis and anti-tuberculosis activity of 1-adamantyl-3-heteroaryl ureas with improved in vitro pharmacokinetic properties” (Bioorg Med Chem, 2013).

For one data set, the system named is Streptococcus pneumoniae. The experiment in a line: microbe, parasite or virus in culture.
The target of data set [1] is T1, Bifunctional epoxide hydrolase 2 (Homo sapiens, UniProt P34913).
T1 sequence (P34913 whole entry): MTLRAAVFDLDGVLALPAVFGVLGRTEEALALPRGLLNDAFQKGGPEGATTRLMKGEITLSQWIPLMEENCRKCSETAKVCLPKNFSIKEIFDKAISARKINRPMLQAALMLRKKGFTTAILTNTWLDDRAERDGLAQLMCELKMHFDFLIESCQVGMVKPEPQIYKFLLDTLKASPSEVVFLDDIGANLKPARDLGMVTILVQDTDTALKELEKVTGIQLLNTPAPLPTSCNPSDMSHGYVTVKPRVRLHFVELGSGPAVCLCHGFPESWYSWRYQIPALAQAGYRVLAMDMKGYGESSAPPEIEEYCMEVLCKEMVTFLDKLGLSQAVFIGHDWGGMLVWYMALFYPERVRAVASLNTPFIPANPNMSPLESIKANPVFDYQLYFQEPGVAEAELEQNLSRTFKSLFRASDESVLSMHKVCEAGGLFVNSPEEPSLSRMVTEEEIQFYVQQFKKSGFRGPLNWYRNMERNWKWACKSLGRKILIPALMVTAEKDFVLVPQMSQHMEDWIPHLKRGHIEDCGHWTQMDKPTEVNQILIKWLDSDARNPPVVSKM

The subject of the next data set is Pseudomonas aeruginosa. Description: microbe, parasite or virus in culture.
The subject of a further data set is Acinetobacter. The experiment in a line: microbe, parasite or virus in culture.
A further data set deals with Streptococcus pyogenes. Description: microbe, parasite or virus in culture.
The subject of data set [2] is Staphylococcus aureus. The experiment in a line: microbe, parasite or virus in culture. The following applies: NRS70.
The subject of the next data set is Klebsiella pneumoniae. The experiment in a line: microbe, parasite or virus in culture.
A further data set has as its system Burkholderia cepacia. Description: microbe, parasite or virus in culture.
A further data set concerns Bacillus subtilis. The experiment in a line: microbe, parasite or virus in culture.
In the next data set the test system is Escherichia coli. Description: microbe, parasite or virus in culture. As to conditions: K-12.
Data set [3] deals with Staphylococcus aureus. Description: microbe, parasite or virus in culture. As to conditions: ATCC 29213.
The test system of a further data set is Proteus vulgaris. Description: microbe, parasite or virus in culture.
In another data set the test system is Enterococcus faecalis. Description: microbe, parasite or virus in culture.
The next data set concerns Proteus mirabilis. The experiment in a line: microbe, parasite or virus in culture.
Data set [4] has as its system Mycobacterium tuberculosis. Description: microbe, parasite or virus in culture. The following applies: H37Rv, 168 h.
For data set [5] the following is noted: buffer, 18 h, pH 7.4.
The next data set relates to Bacillus anthracis. The experiment in a line: microbe, parasite or virus in culture. The following applies: Sterne.

≈ marks a conversion by molar mass, not a printed value.

Take `O=C(Nc1ccncc1)NC12CC3CC(CC(C3)C1)C2`: the MIC against Streptococcus pneumoniae, with Pseudomonas aeruginosa, with Acinetobacter, with Streptococcus pyogenes, against Staphylococcus aureus [2] and against Klebsiella pneumoniae was > 200 µg/mL each time. The MIC against Burkholderia cepacia, against Bacillus subtilis, in the data set on Escherichia coli, with Staphylococcus aureus [3], in the data set on Proteus vulgaris and against Enterococcus faecalis was > 200 µg/mL in each case. The MIC is > 200 µg/mL in the data set on Proteus mirabilis, 18 µg/mL (≈ 66.3 µM) in data set [4] and > 200 µg/mL in the data set with Bacillus anthracis. In data set [1], this molecule had an IC50 of 174 nM. This molecule also had a solubility in data set [5] of 7 µg/mL (≈ 25.8 µM).
Regarding `O=C(Nc1ccon1)NC12CC3CC(CC(C3)C1)C2`, the MIC in the data set on Streptococcus pneumoniae, against Pseudomonas aeruginosa, in the data set with Acinetobacter, in the data set on Streptococcus pyogenes, in the data set on Staphylococcus aureus [2] and in the data set with Klebsiella pneumoniae was > 200 µg/mL in each case. Moreover, the MIC was 100 µg/mL (≈ 383 µM) with Burkholderia cepacia; > 200 µg/mL with Bacillus subtilis; > 200 µg/mL in the data set with Escherichia coli; > 200 µg/mL against Staphylococcus aureus [3]; > 200 µg/mL in the data set with Proteus vulgaris; 100 µg/mL (≈ 383 µM) in the data set with Enterococcus faecalis. Moreover, the values for the MIC (against Proteus mirabilis; in [4]; in the data set on Bacillus anthracis) were > 200 µg/mL, 50 µg/mL (≈ 191 µM) and > 200 µg/mL, respectively. Further, in data set [1], half-maximal inhibition (IC50) required 46 nM. Further, the solubility in data set [5] came to 20.3 µg/mL (≈ 77.7 µM).
Take `CCn1nc(NC(=O)NC23CC4CC(CC(C4)C2)C3)cc1C`: the MIC in the data set with Streptococcus pneumoniae, with Pseudomonas aeruginosa, with Acinetobacter, against Streptococcus pyogenes, with Staphylococcus aureus [2] and in the data set with Klebsiella pneumoniae was > 200 µg/mL throughout. Besides, the MIC with Burkholderia cepacia, in the data set with Bacillus subtilis, in the data set on Escherichia coli, against Staphylococcus aureus [3], against Proteus vulgaris and in the data set on Enterococcus faecalis was > 200 µg/mL each time. Besides, the MIC is > 200 µg/mL in the data set on Proteus mirabilis, 12.5 µg/mL (≈ 41.3 µM) in data set [4] and > 200 µg/mL in the data set on Bacillus anthracis. Moreover, in data set [1], it took 2510 nM to reach half-maximal inhibition (IC50). In [5], this molecule displayed a solubility of 13.2 µg/mL (≈ 43.6 µM).
Consider `Cc1onc(NC(=O)NC23CC4CC(CC(C4)C2)C3)c1Br`, for which the MIC in the data set on Streptococcus pneumoniae is > 200 µg/mL; with Pseudomonas aeruginosa, > 200 µg/mL; in the data set with Acinetobacter, > 200 µg/mL; in the data set on Streptococcus pyogenes it was > 200 µg/mL; with Staphylococcus aureus [2] it was 200 µg/mL (≈ 565 µM); in the data set with Klebsiella pneumoniae it was > 200 µg/mL. For the same molecule, the MIC in the data set on Bacillus subtilis is > 200 µg/mL; against Escherichia coli it was 50 µg/mL (≈ 141 µM); in the data set with Staphylococcus aureus [3] it was 50 µg/mL (≈ 141 µM); in the data set with Proteus vulgaris, > 200 µg/mL; in the data set with Proteus mirabilis, > 200 µg/mL; in [4], 100 µg/mL (≈ 282 µM). The MIC against Bacillus anthracis is > 200 µg/mL. Besides, the IC50 in data set [1] was determined as 0.8 nM. This molecule had a solubility in [5] of 0.1 µg/mL (≈ 0.282 µM).
As for `Cc1noc(NS(=O)(=O)c2ccc(NC(=O)NC34CC5CC(CC(C5)C3)C4)cc2)c1C`, the MIC in the data set on Streptococcus pneumoniae, in the data set on Pseudomonas aeruginosa, with Acinetobacter, in the data set on Streptococcus pyogenes, with Staphylococcus aureus [2] and with Klebsiella pneumoniae was > 200 µg/mL each time. In addition, the MIC in the data set with Burkholderia cepacia, against Bacillus subtilis, against Escherichia coli, in the data set with Staphylococcus aureus [3], against Proteus vulgaris and in the data set with Enterococcus faecalis was > 200 µg/mL in each case. Besides, the MIC in the data set on Proteus mirabilis was > 200 µg/mL; in data set [4] it was 25 µg/mL (≈ 56.2 µM); with Bacillus anthracis, > 200 µg/mL. This molecule also gave an IC50 in data set [1] of 31 nM. The molecule further had a solubility in [5] of 27.3 µg/mL (≈ 61.4 µM).
Regarding `O=C(Nc1ccncn1)NC12CC3CC(CC(C3)C1)C2`, the MIC was 50 µg/mL (≈ 184 µM) against Streptococcus pneumoniae; > 200 µg/mL against Pseudomonas aeruginosa; > 200 µg/mL against Acinetobacter; > 200 µg/mL against Streptococcus pyogenes; > 200 µg/mL against Staphylococcus aureus [2]; > 200 µg/mL against Klebsiella pneumoniae. Moreover, the MIC against Burkholderia cepacia was 200 µg/mL (≈ 734 µM); in the data set with Bacillus subtilis it was 50 µg/mL (≈ 184 µM); in the data set on Escherichia coli, > 200 µg/mL; in the data set with Staphylococcus aureus [3], 100 µg/mL (≈ 367 µM); with Proteus vulgaris, > 200 µg/mL; with Enterococcus faecalis, > 200 µg/mL. For the same molecule, the values for the MIC (with Proteus mirabilis; in data set [4]; against Bacillus anthracis) were > 200 µg/mL, 25 µg/mL (≈ 91.8 µM) and > 200 µg/mL, respectively. Besides, the midpoint of inhibition in [1], the IC50, lay at 775 nM. The molecule also showed a solubility in [5] of 15.5 µg/mL (≈ 56.9 µM).
On to `Cc1nnc(NC(=O)NC23CC4CC(CC(C4)C2)C3)o1`, for which the MIC against Streptococcus pneumoniae, with Pseudomonas aeruginosa, with Acinetobacter, in the data set with Streptococcus pyogenes, in the data set with Staphylococcus aureus [2] and in the data set with Klebsiella pneumoniae was > 200 µg/mL in each case. Moreover, the MIC in the data set with Burkholderia cepacia, against Bacillus subtilis, against Escherichia coli, with Staphylococcus aureus [3], with Proteus vulgaris and against Enterococcus faecalis was > 200 µg/mL in each case. Also, the results for the MIC (in the data set on Proteus mirabilis; in [4]; against Bacillus anthracis) were > 200 µg/mL, 25 µg/mL (≈ 90.5 µM) and > 200 µg/mL, respectively. The molecule further registered an IC50 in data set [1] of 595 nM. This molecule also returned a solubility in data set [5] of 9.77 µg/mL (≈ 35.4 µM).
In the case of `O=C(Nc1ccccn1)NC12CC3CC(CC(C3)C1)C2`, the MIC with Streptococcus pneumoniae, against Pseudomonas aeruginosa, against Acinetobacter, against Streptococcus pyogenes, against Klebsiella pneumoniae and against Escherichia coli was > 200 µg/mL each time. Also, the MIC in the data set on Proteus vulgaris, with Proteus mirabilis and with Bacillus anthracis was > 200 µg/mL in each case. The IC50 in [1] is 1500 nM. The molecule also returned a solubility in [5] of 1.4 µg/mL (≈ 5.16 µM).
`O=C(Nc1nnc(-c2cccs2)o1)NC12CC3CC(CC(C3)C1)C2`: the MIC in the data set on Streptococcus pneumoniae, against Pseudomonas aeruginosa, in the data set on Acinetobacter, against Streptococcus pyogenes, in the data set with Staphylococcus aureus [2] and with Klebsiella pneumoniae was > 200 µg/mL in each case. In addition, the MIC with Burkholderia cepacia, against Bacillus subtilis, against Escherichia coli, against Staphylococcus aureus [3], in the data set with Proteus vulgaris and with Proteus mirabilis was > 200 µg/mL throughout. In addition, the figures for the MIC (in [4]; with Bacillus anthracis) were 100 µg/mL (≈ 290 µM) and > 200 µg/mL, respectively. For the same molecule, the midpoint of inhibition in [1], the IC50, lay at 1570 nM. In addition, the solubility in [5] amounted to 2.2 µg/mL (≈ 6.39 µM).
Turning to `Cc1noc(NC(=O)NC23CC4CC(CC(C4)C2)C3)c1Cl`, the MIC against Streptococcus pneumoniae, in the data set on Pseudomonas aeruginosa, against Streptococcus pyogenes, against Staphylococcus aureus [2], against Klebsiella pneumoniae and with Burkholderia cepacia was > 200 µg/mL throughout. For the same molecule, the MIC against Bacillus subtilis, against Escherichia coli, in the data set on Staphylococcus aureus [3], against Proteus vulgaris, against Enterococcus faecalis and against Proteus mirabilis was > 200 µg/mL in each case. For the same molecule, in [4], the MIC was 100 µg/mL (≈ 323 µM). This molecule came in with an IC50 in data set [1] of 0.5 nM. This molecule showed a solubility in data set [5] of 1.5 µg/mL (≈ 4.84 µM).
Regarding `Cc1noc(NC(=O)NC23CC4CC(CC(C4)C2)C3)c1C`, the MIC in the data set with Streptococcus pneumoniae, with Pseudomonas aeruginosa, in the data set on Streptococcus pyogenes, against Staphylococcus aureus [2], with Klebsiella pneumoniae and against Burkholderia cepacia was > 200 µg/mL each time. In addition, the MIC against Bacillus subtilis, in the data set on Escherichia coli, with Staphylococcus aureus [3], against Proteus vulgaris, with Enterococcus faecalis and in the data set on Proteus mirabilis was > 200 µg/mL throughout. The same molecule had an MIC in data set [4] of 100 µg/mL (≈ 346 µM). Also, half-maximal inhibition in [1] (IC50) required 20 nM. The solubility in data set [5] is 5.7 µg/mL (≈ 19.7 µM).
With `O=C(Nc1ccc(S(=O)(=O)Nc2ccc(Cl)nn2)cc1)NC12CC3CC(CC(C3)C1)C2`, the MIC in the data set on Streptococcus pneumoniae was 100 µg/mL (≈ 216 µM); in the data set on Pseudomonas aeruginosa it was > 200 µg/mL; against Acinetobacter it was > 200 µg/mL; in the data set with Streptococcus pyogenes, > 200 µg/mL; against Klebsiella pneumoniae, > 200 µg/mL; with Burkholderia cepacia, 100 µg/mL (≈ 216 µM). The MIC with Bacillus subtilis was > 200 µg/mL; in the data set on Escherichia coli, > 200 µg/mL; in the data set with Staphylococcus aureus [3], 50 µg/mL (≈ 108 µM); against Proteus vulgaris, > 200 µg/mL; with Enterococcus faecalis, 100 µg/mL (≈ 216 µM); in the data set with Proteus mirabilis, 100 µg/mL (≈ 216 µM). In the data set with Bacillus anthracis, this molecule came in with an MIC of 1.56 µg/mL (≈ 3.38 µM). Moreover, the IC50 in data set [1] stood at 19 nM. Moreover, the solubility in data set [5] came out at 20.7 µg/mL (≈ 44.8 µM).

The IC50 is the concentration that inhibits the measured activity by half. High values mean weaker potency in that assay, low ones greater potency in that assay. As a reminder, the solubility is the concentration that dissolves in the medium under given conditions. A high value points to a readily soluble substance.
